Converted amounts (≈) assume the structure as drawn. Residues, ends and D or L forms follow the SMILES beside them.
How the values were obtained:
[1] = Stability test in human plasma; format: in vitro ADME; details: for Analyte Remaining % / Concentration calculated from LC-MS data: human plasma, 10 mg/ml stock into plasma 1:1, LC-MS; for Concentration calculated from LC-MS data: methanol precipitation, 0.45 µm filtration; for Stability: rat and human plasma
Protocol: (§1) Analytic HPLC-MS was performed using an Agilent 1260 series Liquid Chromatography/Mass Selective Detector (MSD) equipped with an electrospray interface and a UV diode array detector. Analyses were performed on an ACE C8, 50 × 3.0 mm, 3 µm column, with an isocratic 0.1% formic acid/ACN eluent, at a rate of 1 ml/min over a period of 5 min. UV absorption was measured at 280 nm, 220 nm, and 215–395 nm. MS analysis was performed with ESI (electron spray ionization) with a positive ionization method.
(§2) Four reaction systems were prepared; INS and INR2 in human plasma, INS and INR2 in rat plasma (Supplementary Table 2). Freshly prepared 10 mg/ml stock solution of the peptides was injected into plasma or PBS solution (1:1). The mixture was diluted with methanol to precipitate the plasma proteins. The samples were filtered through PTFE 0.45 µm filters and run in LC-MS. Samples were taken at the following times: 0, 15, 30, 60, 120, 240, and 480 min and after 24 h.

[2] = Stability test in rat plasma; format: in vitro ADME; details: for Analyte Remaining %: 10 mg/ml stock into plasma 1:1, LC-MS; for Concentration calculated from LC-MS data: 10 mg/ml stock into plasma 1:1, methanol precipitation, 0.45 µm filtration
Protocol: as §1, §2

[3] = Solubility of IN-derived peptides in PBS; format: physicochemical; details: for Solubility: at 0 min, verified at 60 min, LC-MS
Protocol: as §1, §2
(§3) Plasma solubility was determined at 0 min and was verified at 60 min (if no degradation was observed).

[4] = Solubility of IN-derived peptides in human plasma; format: physicochemical; details: LC-MS
Protocol: as §1, §2, §3

[5] = test system: SD rats; test: 28-day repeated dose toxicity study; format: in vivo, rat; details: slow IV bolus twice weekly for 4 weeks, 4 weeks recovery; male and female SD rats; highest dose tested
Protocol: Four weeks of repeated dosing followed by four weeks of recovery was performed in female and male SD rats, via slow IV bolus of the INS peptide. Eighty rats (40 males and 40 females) were utilized for the main study groups (n = 10 per study group). An additional 40 animals (20 males and 20 females) were used as recovery groups (n = 5 per study group). Group allocation was done without investigator blinding. Study evaluations included: mortality and morbidity, body weight, food consumption, clinical signs, ophthalmological observation, blood collection for hematology, clinical chemistry, coagulation, urine analysis, necropsy, and gross pathology, organ weight, and histopathology. The study was approved by the Institutional Review Board of Tel Aviv Sourasky Medical Center.

[6] = test system: SD rats; test: Immunogenicity, anti-peptide antibody ELISA; format: in vivo, rat; details: biweekly administrations over 10 weeks, serum 1:50
Protocol: Animals were fed ad libitum a commercial rodent diet (Teklad Certified Global 18% Protein Diet). Animals had free access to sterilized and acidified drinking water (pH between 2.5 and 3.5). SD rats were randomly allocated to cages and treated twice a week, for ten weeks with INS peptide, at two doses of 1.5 and 7.5 mg/kg. Rat blood was collected before immunization (exposure to the peptide) to serve as a baseline, and after immunization at day 21, 35, 49, and 70/72. The immunogenicity was analyzed by evaluation of anti-peptide antibodies in the sera of SD rats, using a specific developed ELISA test. A 96 well plate was coated overnight with INS labeled with biotin (5 µg/ml) (Thermo Scientific) followed by blocking (3% Milk in PBS) for 1 h at room temperature (RT). Serum samples were diluted at 1:50 and added to the plates for 1 h at RT. After washing with PBST (three times), a donkey anti-rat antibody (Jackson Laboratories, cat. no. 705-035-003) (diluted 1:5000) was added and incubated for 1 h at RT. Then, TMB, diluted 1:2 was added and the reaction was stopped after 10 min with HCL solution. Absorbance was measured by an automated microplate reader (iMARK microplate reader, BioRad) with a wavelength of 450 nm.

[7] = test system: Lymphocytes of healthy volunteers; test: Cytotoxicity of peptides, WST-1; format: cell-based, human; details: peptide alone
Protocol: Written informed consent was obtained from all eligible participants prior to entry into the study. Approval for this study was provided by Kaplan Medical Center’s Ethics Committee (Protocol No. ZMS1/2016). Lymphocytes of healthy volunteers were isolated from the peripheral blood by Ficoll-Paque density gradient centrifugation. Cells were incubated in DMEM with different peptide concentrations for 72 h. Then, 100 µl of cells were taken for toxicity testing using a quantitative cell viability test, the WST-1 assay.

[8] = Solubility of IN-derived peptides in rat plasma; format: physicochemical; details: LC-MS
Protocol: as §1, §2, §3

[9] = from 5 mg/mL sample (10 mg/ml stock into plasma 1:1), at 0 min, verified at 60 min, methanol precipitation, PTFE 0.45 µm filtration

CC[C@H](C)[C@H](NC(=O)[C@H](Cc1ccccc1)NC(=O)[C@@H](NC(=O)[C@H](C)NC(=O)[C@H](CCSC)NC(=O)[C@H](CCC(N)=O)NC(=O)[C@@H](NC(=O)[C@H](C)NC(=O)[C@@H](NC(=O)[C@@H](N)Cc1c[nH]c2ccccc12)[C@@H](C)O)C(C)C)C(C)C)C(=O)N[C@@H](Cc1c[nH]cn1)C(=O)N[C@@H](CC(N)=O)C(=O)N[C@@H](Cc1ccccc1)C(=O)N[C@@H](CCCCN)C(=O)N[C@@H](CCCNC(=N)N)C(=O)N[C@@H](CCCCN)C(=O)O [INS] (H-WTAVQMAVFIHNFKRK-OH)
Analyte Remaining % ([1]; 0 h): 65.7%
Concentration calculated from LC-MS data ([1]; 0 h): 3290 µg/mL
Analyte Remaining % ([1]; 0.25 h): 60.9%
Concentration calculated from LC-MS data ([1]; 0.25 h): 3040 µg/mL
Analyte Remaining % ([1]; 0.5 h): 71.1%
Concentration calculated from LC-MS data ([1]; 0.5 h): 3590 µg/mL
Analyte Remaining % ([1]; 1 h): 58.4%
Concentration calculated from LC-MS data ([1]; 1 h): 2920 µg/mL
Analyte Remaining % ([1]; 2 h): 62.7%
Concentration calculated from LC-MS data ([1]; 2 h): 3130 µg/mL
Analyte Remaining % ([1]; 4 h): 62.2%
Concentration calculated from LC-MS data ([1]; 4 h): 3110 µg/mL
Analyte Remaining % ([1]; 8 h): 44.2%
Concentration calculated from LC-MS data ([1]; 8 h): 2210 µg/mL
Analyte Remaining % ([1]; 24 h): 23.8%
Concentration calculated from LC-MS data ([1]; 24 h): 1190 µg/mL
Stability ([1]; after 8 h): 40%
Stability ([1]; after 24 h): ~ 25%
Analyte Remaining % ([2]; 0 h): 80.3%
Concentration calculated from LC-MS data ([2]; 0 h): 4010 µg/mL
Analyte Remaining % ([2]; 0.25 h): 68.2%
Concentration calculated from LC-MS data ([2]; 0.25 h): 3410 µg/mL
Analyte Remaining % ([2]; 0.5 h): 65.3%
Concentration calculated from LC-MS data ([2]; 0.5 h): 3260 µg/mL
Analyte Remaining % ([2]; 1 h): 58.9%
Concentration calculated from LC-MS data ([2]; 1 h): 2940 µg/mL
Analyte Remaining % ([2]; 2 h): 50.5%
Concentration calculated from LC-MS data ([2]; 2 h): 2530 µg/mL
Analyte Remaining % ([2]; 4 h): 38.6%
Concentration calculated from LC-MS data ([2]; 4 h): 1930 µg/mL
Analyte Remaining % ([2]; 8 h): 36.1%
Concentration calculated from LC-MS data ([2]; 8 h): 1800 µg/mL
Analyte Remaining % ([2]; 24 h): 14.8%
Concentration calculated from LC-MS data ([2]; 24 h): 740 µg/mL
Solubility ([3]; % of 5 mg/mL sample): 89.2%
Solubility ([3]; from 5 mg/mL sample (10 mg/ml stock into PBS 1:1), methanol dilution, PTFE 0.45 µm filtration): 4.46 mg/mL (≈ 2260 µM)
Solubility (in words) ([3]; rat and human plasma): highly soluble
Solubility ([4]; % of 5 mg/mL sample): 62%
Solubility [4, 9]: 3.1 mg/mL (≈ 1570 µM)
no-observed-adverse-effect level (NOAEL) [5]: 7.5 mg/kg
Immunogenicity (anti-peptide antibodies, ELISA; words) ([6]; dose level 1.5 (mg/kg)): no
Immunogenicity (anti-peptide antibodies, ELISA; words) ([6]; dose level 7.5 (mg/kg)): very low
Viability of primary lymphocytes [7]: not affected
Solubility ([8]; % of 5 mg/mL sample): 80.2%
Solubility [8, 9]: 4.01 mg/mL (≈ 2030 µM)

— PMC8175240, “Integrase-derived peptides together with CD24-targeted lentiviral particles inhibit the growth of CD24 expressing cancer cells” (Oncogene, 2021)
